Data taken from patent US8580122B2, “Hybrid chemical/mechanical method and apparatus for inactivating and removing pharmaceuticals and other contaminants from water” (priority 2004, dated 2013).
Counter-ions that a name gives are not always drawn. Like-named read-outs stand apart in the source and are kept apart here.

Experiments:
[1] = cited from earlier work; for biodegradation in the CBT, test prolonged: prolonged to 40 days; for biodegradability in the CBT: result in words
[2] = eight German STPs; cited from earlier work
[3] = cited from earlier work
[4] = cited from earlier work; remark: listed apart in the source
[5] = result in words; cited from earlier work
[6] = computer model, binding to sludge solids; cited from earlier work
[7] = result in words; cited from earlier work; remark: listed apart in the source
[8] = cited from earlier work; for biodegradability in the ZWT: result in words
[9] = result in words; cited from earlier work; remark: listed apart in the source
[10] = result in words; cited from earlier work; remark: listed apart in the source
[11] = system: fecal coliforms; assay: sulfur dioxide treatment of effluent, Saticoy-Jose Florez Wastewater Treatment Plant; conditions: effluent undergoing sulfur dioxide treatment
Source text: The destruction of odor causing microbes feeding on the water stops further CO2 production, and may be employed where the wastewater treatment plant is mandated to reduce these carbon dioxide emissions. Also, if there is significant carbon in the suspended solids, most perchlorates and chlorates will have been reduced on contact with the solids. The separation and disposal of the solids also removes most of the adsorbed microbes. Under this wastewater treatment scenario, the sulfur dioxide reduction treatment is more for acidification, inactivating of certain chemicals such as Chromium VI susceptible to acid reduction, adding sulfurous and sulfate ions, and chemical dewatering of the solids. […] This disinfection level is suitable in California for gray water land application. Consequently, the sulfur dioxide was used primarily to acid reduce pharmaceuticals, and condition the solids and separated wastewater for land application.

[12] = laboratory-scale activated sludge plants; cited from earlier work
[13] = result in words; cited from earlier work; remark: listed apart in the source
[14] = wastewater treatment plant; cited from earlier work
[15] = epilimnion of Lake Greifensee; cited from earlier work
[16] = pilot sewage plant and anoxic biofilm reactor

For CC1(C)S[C@@H]2[C@H](NC(=O)Cc3ccccc3)C(=O)N2[C@H]1C(=O)O [penicillin G], the “biodegradation in the CBT, test prolonged” value [1] is listed as 35%, the “biodegradation in the CBT (removed / biodegraded)” value ([1]; regular test period, 28 days printed for penicillin G) is listed as “approximately 27%” and the “biodegradability in the CBT” value [1] is listed as “None of the test compounds met the criteria for ready biodegradability”.

In the case of CN(C)CCn1nnnc1SCC1=C(C(=O)O)N2C(=O)[C@@H](NC(=O)Cc3csc(N)n3)[C@H]2SC1 [cefotiam], the “biodegradability in the CBT” value [1] is given as “None of the test compounds met the criteria for ready biodegradability”.

For CN(C(=O)CO)c1c(I)c(C(=O)NCC(O)CO)c(I)c(C(=O)NCC(O)CO)c1I (stereo not shown) [iomeprol], the “degradation or absorption during sewage treatment” value [2] is given as “not significantly degraded or absorbed”.

For O=C(O)Cc1ccccc1Nc1c(Cl)cccc1Cl [diclofenac], the degraded ([3]; entering a Swiss lake) is listed as “up to 90%”, the “reduction on incubation in the dark” value ([3]; fortified lake water) is listed as “no reduction” and the biological degradation [4, 16] is listed as “partially degraded”.

For CC(C)Cc1ccc(C(C)C(=O)O)cc1 (stereo not shown) [ibuprofen], the biological degradation ([4]; oxic biofilm reactor) is listed as “high degree of degradation” and the biological degradation [4, 16] is listed as “partially degraded”.

In the case of CN/C(=N/CCSCc1nc[nH]c1C)NC#N [cimetidine], the direct photolysis [5] is listed as “resistant to direct photolysis”.

For CC(=O)Nc1c(I)c(NC(C)=O)c(I)c(C(=O)O)c1I [diatrizoate], the “degradation or absorption during sewage treatment” value [2] is given as “not significantly degraded or absorbed”.

In the case of Cc1cccc(Nc2ccccc2C(=O)O)c1C [mefenamic acid], the predicted sorption potential [6] is given as “high capacity to bind to solids”.

For Oc1ccc(Cl)c2cccnc12 [cloxiquin], the light sensitivity [7] is given as “light sensitive”.

In the case of C[C@@H](O)[C@H]1C(=O)N2C(C(=O)O)=C(S[C@@H]3CN[C@H](C(=O)N(C)C)C3)[C@H](C)[C@H]12 [meropenem], the “biodegradability in the CBT” value [1] is given as “None of the test compounds met the criteria for ready biodegradability”.

For Nc1ccn([C@@H]2O[C@H](CO)[C@@H](O)C2(F)F)c(=O)n1 [gemcitabine], the “degree of biodegradation, test prolonged” value ([8]; prolonged to 40 days, test read from the sentence before) is given as 80% and the “biodegradation in the CBT, test prolonged” value [1] is given as 45%.

For O=c1[nH]cc(F)c(=O)[nH]1 [5-fluorouracil], the “biodegradability in the ZWT” value [8] is given as “not biodegradable” and the “biodegradability in the CBT” value [1] is given as “not biodegradable”.

In the case of CN(C/C=C/c1ccccc1)Cc1cccc2ccccc12 [naftifine], the light sensitivity [7] is given as “light sensitive”.

In the case of Cc1cccc(N(C)C(=S)Oc2ccc3ccccc3c2)c1 [tolnaftate], the light sensitivity [7] is listed as “light sensitive”.

For CC(=O)Nc1ccc(O)cc1 [paracetamol], the biodegradability [9] is listed as “biodegradable”.

In the case of O=C(O)c1ccccc1O [salicylic acid], the biodegradability [9] is listed as “biodegradable”.

In the case of C[C@H](O)C(=O)Nc1c(I)c(C(=O)NC(CO)CO)c(I)c(C(=O)NC(CO)CO)c1I [iopamidol], the “degradation or absorption during sewage treatment” value [2] is given as “not significantly degraded or absorbed”.

In the case of CN(CC(O)CO)C(=O)c1c(I)c(N)c(I)c(C(=O)NCC(O)CO)c1I (stereo not shown) [5-amino-N,N′bis(2,3-dihydroxypropyl)-2,4,6-triiodo-N-methyliso-phthalamide], the photodegradation [10] is listed as “faster rate of photolysis than the parent compound”.

With O=S=O [sulfur dioxide] the “fecal coliforms in treated effluent” value [11] was < 2 MPN.

For O=P1(N(CCCl)CCCl)NCCCO1 (stereo not shown) [cyclophosphamide], the “biodegradability in the ZWT” value [8] is given as “poor biodegradability”, the “biodegradability in the CBT” value [1] is given as “poor biodegradability” and the biodegradability [12] is given as “poor biodegradability”.

In the case of O=C(O)c1cn(C2CC2)c2cc(N3CCNCC3)c(F)cc2c1=O [ciprofloxacin], the “biodegradability in the CBT” value [1] is given as “None of the test compounds met the criteria for ready biodegradability” and the biodegradability [13] is given as “none of the compounds were biodegraded”.

In the case of COCC(=O)Nc1c(I)c(C(=O)NCC(O)CO)c(I)c(C(=O)N(C)CC(O)CO)c1I (stereo not shown) [iopromide], the photodegradation [10] is listed as “amenable to photodegradation” and the “degradation or absorption during sewage treatment” value [2] is listed as “not significantly degraded or absorbed”.

For Oc1cc(Cl)ccc1Oc1ccc(Cl)cc1Cl [triclosan, 2,4,4′-trichloro2′-hydroxyphenyl ether], the “fate: biological degradation” value [14] is given as 79% and the “overall elimination rate due to photochemical degradation” value [15] is given as 0.03 day⁻¹.

For C=C[C@H]1C[N@@]2CC[C@H]1C[C@H]2[C@H](O)c1ccnc2ccc(OC)cc12 [quinine sulfate], the predicted sorption potential [6] is given as “high capacity to bind to solids”.

For S=C1SCN(Cc2ccccc2)CN1Cc1ccccc1 [sulbentine], the light sensitivity [7] is listed as “light sensitive”.
